One assay concerns the target Glutamate NMDA receptor. The assay is described as follows: Inhibition of [3H]dizocilpine binding to N-methyl-D-aspartate (NMDA) receptor complex in rat brain membranes. In kind it is cell membranes.
The species entered for assay [1] is Rattus norvegicus. The assay is described as follows: Protective potency against glutamate-induced neurotoxicity in cultures of embryonic rat brain at a compound concentration of 10 uM+Glutamate (100 uM). In kind it is functional.
For assay [2], the species on record is Rattus norvegicus. The assay is described as follows: Inhibitory activity (0.1 uM) against NMDA (30 uM) and glycine (10 uM) induced increase in [Ca2+]i in cultured forebrain neurons from fetal rat. In kind it is functional. More on the design: scale not given: the % may be the effect or the level left.
Assay [3] is filed under the species Rattus norvegicus. The assay is described as follows: Protective potency against glutamate-induced neurotoxicity in cultures of embryonic rat brain at a compound concentration of 100 uM. The assay is classed as functional.
Assay [4] is filed under the species Rattus norvegicus. The assay is described as follows: Protective potency against glutamate-induced neurotoxicity in cultures of embryonic rat brain at a compound concentration of 10 uM. In kind it is functional.
Assay [5] is filed under the species Rattus norvegicus. The assay is described as follows: Inhibitory activity (1.0 uM) against NMDA (30 uM) and glycine (10 uM) induced increase in [Ca2+]i in cultured forebrain neurons from fetal rat. The assay is classed as functional. Also on record: scale not given: the % may be the effect or the level left.
The species entered for assay [6] is Rattus norvegicus. In words: Inhibitory activity (10.0 uM) against NMDA (30 uM) and glycine (10 uM) induced increase in [Ca2+]i in cultured forebrain neurons from fetal rat. The assay is classed as functional. Also on record: scale not given: the % may be the effect or the level left.
Assay [7] is filed under the species Rattus norvegicus. In words: Protective potency against glutamate-induced neurotoxicity in cultures of embryonic rat brain at a concentration of 100 uM+Glutamate (100 uM). The assay is classed as functional.
The species named for assay [8] is Rattus norvegicus. The assay is described as follows: Protective potency against glutamate-induced neurotoxicity in cultures of embryonic rat brain at a concentration of 100 uM (p < 0.05). The assay is classed as functional.

As a reminder, the IC50 is the midpoint of a concentration-inhibition curve. For the compound `c1cc(N2CCCN(c3ccc(C4=NCCN4)cc3)CC2)ccc1C1=NCCN1`, on Glutamate NMDA receptor, the 50% inhibitory concentration (IC50) amounted to 4.99 µM.
On the same count and under the same terms, next, `N=C(N)c1ccc(OC[C@@H]2C[C@H]2COc2ccc(C(=N)N)cc2)cc1`: 11.7 µM; `C(=C1CCN(Cc2ccc(C3=NCCN3)cc2)CC1)c1ccc(C2=NCCN2)cc1`: 35.6 µM; `C(=C1/CCCN(c2ccc(C3=NCCN3)cc2)C1)/c1ccc(C2=NCCN2)cc1`: 8.35 µM.
Same read-out and setting: next, `N=C(N)c1ccc(NC(=O)c2cccc(C(=O)Nc3ccc(C(=N)N)cc3)c2)cc1`: > 200 µM; `c1cc(C2=NCCN2)ccc1CC1CCCN(c2ccc(C3=NCCN3)cc2)C1` (configuration not stated): 7.84 µM.
Take `N=C(N)c1ccc(N2CCCN(c3ccc(C(=N)N)cc3)CC2)cc1`: the Activity in the assay filed under Rattus norvegicus [1] came to 99%; in the assay listed under Rattus norvegicus [2] it was 111.26%; in the assay listed under Rattus norvegicus [3], 87%; in the assay listed under Rattus norvegicus [4] it was 100%; in the assay filed under Rattus norvegicus [5], 67.04%; in the assay filed under Rattus norvegicus [6], 37.58%. In the assay filed under Rattus norvegicus [7], this compound returned an Activity of 98%. Also, the concentration for half-maximal inhibition (IC50) at Glutamate NMDA receptor was determined as 1.19 µM.
In turn, `N=C(N)c1ccc(OCCCCCOc2ccc(C(=N)N)cc2)cc1` [PENTAMIDINE] yielded a concentration for half-maximal inhibition (IC50) at Glutamate NMDA receptor of 2.59 µM.
Same read-out and setting: next, `N=C(N)c1ccc(N2CCN(c3ccc(C(=N)N)cc3)CC2)cc1`: 5.32 µM; `N=C(N)c1ccc(NC(=O)c2cccc(C(=O)Nc3ccc(C(=N)N)cc3)n2)cc1`: 66 µM; `N#Cc1ccc(N2CCCN(c3ccc(C#N)cc3)CC2)cc1`: 45.8 µM.
On the same count and under the same terms, next, `c1cc(C2=NCCN2)ccc1OC[C@@H]1C[C@H]1COc1ccc(C2=NCCN2)cc1`: 16.5 µM; `c1cc(N2CCN(c3ccc(C4=NCCN4)cc3)CC2)ccc1C1=NCCN1`: 18.2 µM; `c1cc(C2=NCCN2)ccc1CC1CCN(c2ccc(C3=NCCN3)cc2)CC1`: 6.29 µM.
The compound `N[C@@H](CCC(=O)O)C(=O)O` [GLUTAMIC ACID] gave an Activity in the assay listed under Rattus norvegicus [8] of 60%.

(Values after ChEMBL document CHEMBL1132046, “Novel bisbenzamidines and bisbenzimidazolines as noncompetitive NMDA receptor antagonists” (Bioorg Med Chem Lett, 1999).)
